Source: patent US7307095B2, “Inhibitors of cathepsin S” (IRM LLC, priority 2003, dated 2007)

Assays:
Assay type in all cases: biochemical
[1] = target: Cathepsin S (Homo sapiens, UniProt P25774); test: Cathepsin S inhibition, fluorogenic peptide substrate kinetic assay; details: Cathepsin S inhibition constant; read-out: Ki Cat. S
Experimental: (§1) The optimal substrate for cathepsin S, acetyl-histidine-proline-valine-lysine-amino carbamoyl coumarin, was identified from screening a combinatorial library of fluorogenic peptide substrates (Harris, J. L., B. J. Backes, et al. Proc Natl Acad Sci USA 2000, 97(14), 7754-9). Kinetic measurements are performed in a total reaction volume of 30 μl in 384-well microtiter plates. […] Control reactions in the absence of inhibitor are performed in replicates of 24. The reactions are initiated by adding the substrate, acetyl-histidine-proline-valine-lysine-amino carbamoyl coumarin, to a final concentration of 50 μM. The rate of substrate hydrolysis is measured by monitoring the increase in fluorescence at an excitation wavelength of 380 nm and an emission wavelength of 450 nm that results from cleavage of the aniline bond in the substrate by the enzyme. The apparent inhibition constants for the compounds are determined from the enzyme progress curves (Kuzmic, P., K. C. Elrod, et al. Anal Biochem 2000, 286(1), 45-50) and are then used to calculate the inhibition constants for competitive inhibitors.

[2] = target: Cathepsin L (Homo sapiens, UniProt P07711); test: Cathepsin L inhibition, fluorogenic peptide substrate kinetic assay (selectivity ratio vs cathepsin S); details: ratio of cathepsin L inhibition constant to cathepsin S inhibition constant
Experimental: as §1, with “cathepsin L, acetyl-histidine-lysine-phenylalanine-lysine-amino” for “cathepsin S, acetyl-histidine-proline-valine-lysine-amino”, “substrate, acetyl-histidine-lysine-phenylalanine-lysine-amino” for “substrate, acetyl-histidine-proline-valine-lysine-amino”, “of 20” for “of 50”, “curves ([…].” for “curves (Kuzmic, P., K. C.”, “inhibitors. Selectivity for cathepsin S in the presence of cathepsin isozymes was determined by the ratio of the cathepsin isozyme inhibition constant of a compound of the present invention to the cathepsin S inhibition constant of the same compound.” for “inhibitors.”

[3] = target: Cathepsin B (Homo sapiens, UniProt P07858); test: Cathepsin B inhibition, fluorogenic peptide substrate kinetic assay (selectivity ratio vs cathepsin S); details: ratio of cathepsin B inhibition constant to cathepsin S inhibition constant
Experimental: (§2) Kinetic measurements are performed in a total reaction volume of 30 μl in 384-well microtiter plates. […] Control reactions in the absence of inhibitor are performed in replicates of 24. The reactions are initiated by adding the substrate, acetyl-histidine-proline-valine-lysine-amino carbamoyl coumarin, to a final concentration of 10 μM. The rate of substrate hydrolysis is measured by monitoring the increase in fluorescence at an excitation wavelength of 380 nm and an emission wavelength of 450 nm that results from cleavage of the aniline bond in the substrate by the enzyme. The apparent inhibition constants for the compounds are determined from the enzyme progress curves ([…]. Elrod, et al. Anal Biochem 2000, 286(1), 45-50) and are then used to calculate the inhibition constants for competitive inhibitors. Selectivity for cathepsin S in the presence of cathepsin isozymes was determined by the ratio of the cathepsin isozyme inhibition constant of a compound of the present invention to the cathepsin S inhibition constant of the same compound.

[4] = target: T1, Cathepsin K (Homo sapiens, UniProt P43235); test: Cathepsin K inhibition, fluorogenic peptide substrate kinetic assay (selectivity ratio vs cathepsin S); details: ratio of cathepsin K inhibition constant to cathepsin S inhibition constant
T1 sequence (P43235 115-329): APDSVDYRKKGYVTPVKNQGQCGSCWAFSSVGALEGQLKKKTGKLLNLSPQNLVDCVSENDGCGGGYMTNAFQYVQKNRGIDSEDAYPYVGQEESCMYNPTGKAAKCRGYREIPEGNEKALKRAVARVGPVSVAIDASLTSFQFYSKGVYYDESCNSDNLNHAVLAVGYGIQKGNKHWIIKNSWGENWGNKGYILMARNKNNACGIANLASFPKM
Experimental: as §2, with “acetyl-lysine-histidine-proline-lysine-amino” for “acetyl-histidine-proline-valine-lysine-amino”, “40” for “10”

Cathepsin L, sequence (P07711 114-333, species assumed): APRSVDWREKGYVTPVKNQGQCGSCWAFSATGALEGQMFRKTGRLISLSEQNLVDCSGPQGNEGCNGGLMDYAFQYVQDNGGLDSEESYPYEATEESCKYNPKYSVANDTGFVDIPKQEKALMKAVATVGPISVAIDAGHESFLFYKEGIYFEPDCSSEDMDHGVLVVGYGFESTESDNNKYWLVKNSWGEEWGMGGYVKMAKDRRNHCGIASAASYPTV
Cathepsin S, sequence (P25774 115-331, species assumed): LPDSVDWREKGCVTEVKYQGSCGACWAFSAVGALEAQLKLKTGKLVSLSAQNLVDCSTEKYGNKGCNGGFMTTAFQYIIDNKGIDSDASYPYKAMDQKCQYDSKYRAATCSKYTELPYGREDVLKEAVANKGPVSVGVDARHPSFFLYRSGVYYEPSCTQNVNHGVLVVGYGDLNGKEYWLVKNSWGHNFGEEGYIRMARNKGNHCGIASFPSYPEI

Compound | Ki [1] [nM] | Selectivity for Cat. S over Cat. L [2] | Selectivity for Cat. S over Cat. B [3] | Selectivity for Cat. S over Cat. K [4]
O=C(NCCN1CCc2cc(F)ccc21)[C@H](CC1CCCCC1)Nc1nc2ccccc2s1 [Example 16, 2-(S)-(Benzothiazol-2-ylamino)-3-cyclohexyl-N-[2-(5-fluoro-2,3-dihydro-indol-1-yl)-ethyl]-propionamide] | < 1000 | + (+, >10) | ++ (++, >100) | ++ (++, >100)
COc1ccc(NCCNC(=O)[C@H](CC2CCCCC2)Nc2nc3ccccc3s2)cc1 [Example 17, 2-(S)-(Benzothiazol-2-ylamino)-3-cyclohexyl-N-[2-(4-methoxy-phenylamino)-ethyl]-propionamide] | < 100 | ++ (++, >100) | +++ (+++, >1000) | +++ (+++, >1000)
CC(C)(C)C[C@H](Nc1cnccn1)C(=O)NCCN1CCc2cc(F)ccc21 [Example 18, (S)-4,4-Dimethyl-2-(pyrazin-2-ylamino)-pentanoic acid [2-(5-fluoro-2,3-dihydro-indol-1-yl)-ethyl]-amide] | < 10000 | + (+, >10) | + (+, >10) | + (+, >10)
O=C(NCCNc1ccc(F)cc1)[C@H](CC1CCCCC1)Nc1nc2ccc(Cl)cc2s1 [Example 21, 2-(S)-(6-Chloro-benzothiazol-2-ylamino)-3-cyclohexyl-N-[2-(4-fluoro-phenylamino)-ethyl]-propionamide] | < 1000 | + (+, >10) | ++ (++, >100) | + (+, >10)
CCOC(=O)C[C@@H](CN1CCc2cc(F)ccc21)NC(=O)[C@H](CC1CCCCC1)Nc1nc2ccc(Cl)cc2s1 [Example 30, 3-(S)-[2-(S)-(6-Chloro-benzothiazol-2-ylamino)-3-cyclohexyl-propionylamino]-4-(5-fluoro-2,3-dihydro-indol-1-yl)-butyric acid ethyl ester] | < 100 | ++ (++, >100) | +++ (+++, >1000) | +++ (+++, >1000)

The next lines start with the values.

Ki [1] [nM] | Selectivity for Cat. S over Cat. L [2] | Selectivity for Cat. S over Cat. B [3] | Selectivity for Cat. S over Cat. K [4] | Compound
< 100 | ++ (++, >100) | ++ (++, >100) | ++ (++, >100) | O=C(N[C@H](CNc1ccc(F)cc1)COCc1ccccc1)[C@H](CC1CCCCC1)Nc1nc2ccccc2o1 [Example 11, 2-(S)-(Benzooxazol-2-ylamino)-N-[1-(R)-benzyloxymethyl-2-(4-fluoro-phenylamino)-ethyl]-3-cyclohexyl-propionamide]
< 100 | +++ (+++, >1000) | +++ (+++, >1000) | ++ (++, >100) | CC(C)(C)C[C@H](Nc1nc2ccccc2o1)C(=O)N[C@H](CN1CCc2cc(F)ccc21)CS(C)(=O)=O [Example 12, (S)-2-(Benzooxazol-2-ylamino)-4,4-dimethyl-pentanoic acid (R)-[2-(5-fluoro-2,3-dihydro-indol-1-yl)-1-methanesulfonylmethyl-ethyl]-amide]
